Assays:
[1] = system: human lung fibroblast MRCVI; assay: ELISA of secreted pro-collagen I alpha 1, human lung fibroblast MRCVI; assay type: cell-based; settings: 48 h, 250 μg
Procedure: (§1) Compounds reconstitution and stock solution: Prior to treatment, DMSO was diluted in PMS until 0.1% DMSO was made. Each compound was solved in 0.1% DMSO (3: 2.5 mg/mL, 1: 2.5 mg/mL, 10: 1 mg/mL, 5: 1 mg/mL, 7: 0.6 mg/mL, 16: 1 mg/mL 17: 1 mg/mL, 44: 0.6 mg/mL, 36: 1 mg/mL.
(§2) Next the different stock solution with 150 μg and 250 μg of each compound per 1 ml culture solution was made by adding the 0.1% DMSO compound solution in the right amount to culture solution (DMEM with 10% FCS and 1% penicillin-streptomycin).
As cell line MRCV1 was used, which is an immortalized cell line originated from human lung fibroblast, bought in 2001.
The cell line was thawed and cultured in Dulbecco's modified Eagle's medium (DMEM, Gibcon, USA) supplemented with 10% fetal bovine serum (FBS, Gibco, Germany) and 1% penicillin-streptomycin (PS, Gibco, USA) at 37° C. in a humidified atmosphere with 5% CO2 until a sufficient number of cells were culture in T75 culture bottles. After reaching a confluence of 80% to 90%, the cells were separated using trypsin and counted. Next 100.000 cells were planted in each well of a 6 well plate in replicates, washed and the DMEM solution with 150 μg and 250 μg/ml substance/DMEM and DMEM with no substance as control was added.
(§3) After 48 h and after 72 h 100 μl supernatant of each well was taken, labelled and frozen at −20° degree Celsius. Prior to perform ELISA the medium was depending on the cell line diluted 1:50 or 1:100 with PBS, otherwise the concentration of collagen fibers was too high to be measured.
The medium containing the secretion of the human lung fibroblast MRCVI was collected after 48 h and 72 h treatment. Secretion of pro-collagen 1 was assessed with human pro-collagen I alpha 1 DuoSet ELISA (R&D systems, USA) To prepare the Elisa plate, Human pro-Collagen I α capture antibody was diluted in ELISA plate-coating buffer at 4 μg/mL working concentration. 100 μl of diluted Capture antibody was added to 96-well microplates and incubated over night at room temperature. After three times washing with Wash Buffer, microplates were blocked by adding 300 μl of Reagent Diluent for 1 hour at room temperature. To proceed the ELISA Human pro-collagen I α1 Standards were diluted in Reagent Diluent (range between […]) and 100 μl of standards or conditioned mediums were added to designated wells. Microplates were incubated at room temperature for 2 hours. Human Pro-collagen I α1 Detection Antibody was prepared in Reagent Diluent at […] working concentration and 100 μl of diluted Detection Antibody was applied for 2 hours at room temperature after extensive washing. Then, working solution of Streptavidin-HRP with Reagent Diluent was prepared by diluting 1:40 and added into each well. After 20 minutes at room temperature incubation, microplates were washed and applied with 100 μl of Substrate Solution for 20 minutes followed by Stop Solution after washing. Finally, signals were measured at 450 nm absorbance by PHomo Microplate Reader (Autobio, China) The amount of pro-collagen 1 was quantified by extrapolating the signal into a linear range of a pro-collagen 1 standard curve. Screening compounds were typically tested at concentration of 150 and 250 μg/mL. The dose response data for each compound and the different cell lines were obtained by nonlinear regression analysis using Prism 9 software (GraphPad, La Jolla, USA).

[2] = system: human dermal fibroblasts HRO159N; assay: ELISA of secreted pro-collagen I alpha 1, human dermal fibroblasts HRO159N; assay type: cell-based; settings: 48 h, 250 μg
Procedure: as §1, §2
Three different cell lines were used for the experiments. GM637 is an immortalized cell line originated from human skin fibroblasts, bought in 2001, UKE1 and […] are cell lines originated from human dermal fibroblasts (dog ear) nurtured from patients, between 60 and 80 years old being completely anonymized at the clinic for dermatology, Rostock.
The cells lines were thawed and were cultured in Dulbecco's modified Eagle's medium (DMEM, Gibcon, USA) supplemented with 10% fetal bovine serum (FBS, Gibco, Germany) and 1% penicillin-streptomycin (PS, Gibco, USA) at 37° C. in a humidified atmosphere with 5% CO2 until a sufficient number of cells were culture in T75 culture bottles. After reaching a confluence of 80% to 90%, the cells were separated using trypsin and counted. Next 100.000 cells were planted in each well of a 6 well plate in replicates, washed and the DMEM solution with 150 μg and 250 μg/ml substance/DMEM and DMEM with no substance as control was added.
as §3
The media containing the secretion of the different human dermal fibroblasts GM637, UKE1, and HRO159N were collected after 48 h and 72 h treatment. Secretion of pro-collagen 1 was assessed with human pro-collagen I alpha 1 DuoSet ELISA (R&D systems, USA) To prepare the Elisa plate, Human pro-Collagen I α capture antibody was diluted in ELISA plate-coating buffer at 4 μg/mL working concentration. 100 μl of diluted Capture antibody was added to 96-well microplates and incubated over night at room temperature. After three times washing with Wash Buffer, microplates were blocked by adding 300 μl of Reagent Diluent for 1 hour at room temperature. To proceed the ELISA Human pro-collagen I α1 Standards were diluted in Reagent Diluent (range between […]) and 100 μl of standards or conditioned mediums were added to designated wells. Microplates were incubated at room temperature for 2 hours. Human Pro-collagen I α1 Detection Antibody was prepared in Reagent Diluent at […] working concentration and 100 μl of diluted Detection Antibody was applied for 2 hours at room temperature after extensive washing. Then, working solution of Streptavidin-HRP with Reagent Diluent was prepared by diluting 1:40 and added into each well. After 20 minutes at room temperature incubation, microplates were washed and applied with 100 μl of Substrate Solution for 20 minutes followed by Stop Solution after washing. Finally, signals were measured at 450 nm absorbance by PHomo Microplate Reader (Autobio, China) The amount of pro-collagen 1 was quantified by extrapolating the signal into a linear range of a pro-collagen 1 standard curve. Screening compounds were typically tested at concentration of 150 and 250 μg/mL. The dose response data for each compound and the different cell lines were obtained by nonlinear regression analysis using Prism 9 software (GraphPad, La Jolla, USA).

SMILES | collagen reduction percentage in comparison to the standard (100%) [1] [%] | collagen reduction percentage in comparison to the standard (100%) [2] [%]
COc1nn2c(C)nnc2c2ccccc12 [Compound 3, 6-Methoxy-3-methyl-1,2,4-triazolo[3,4-a]phthalazine] | 11 | 82
[2H]C([2H])([2H])c1nnc2c3ccccc3cnn12 [Compound 7, 3-D3-Methyl-1,2,4-triazolo[3,4-a]phthalazine] | 9 | 43
CC(C)Oc1nn2nnnc2c2c(Cl)cccc12 [Compound 44, 10-chloro-6-isopropoxytetrazolo[5,1-a]phthalazine] |  | 72
c1ccc2c(c1)cnn1cnnc21 [Compound 10, 1,2,4-Triazolo[3,4-a]phthalazine] | 52 | 
Cc1nnc2c3cscc3cnn12 [Compound 16, 3-Methylthieno[3,4-d][1,2,4]triazolo[4,3-b]pyridazine] | 43 | 79
c1ccc2c(c1)cnn1nnnc21 [Compound 1, Tetrazolo[5,1-a]phthalazine] | 78 | 57
Cc1nnc2c3ccc(C(F)(F)F)cc3cnn12 [Compound 36, 3-Methyl-8-(trifluoromethyl)-[1,2,4]triazolo[3,4-a]phthalazine] | 68 | 
c1nn2nnnc2c2cscc12 [Compound 17, Tetrazolo[1,5-b]thieno[3,4-d]pyridazine] | 16 | 34
